From patent publication US4119710A, “Bronchospasmolytic 1-(p-amino-phenyl)-2-amino-ethanols-(1) and salts” (Boehringer Ingelheim GmbH, priority 1972, dated 1978)
Counter-ions that a name gives are not always drawn.

Key:
[1] = acute toxicity in mice (LD50, Litchfield and Wilcoxon); conditions: mouse, in vivo, iv, groups of 10, i.v., deaths within 14 days (Table II), read-out: LD50
Experimental: (§1) The compounds of this invention were tested for toxicity and with regard to their action on the β-receptors in warm-blooded animals, such as cats and guinea pigs, by the methods described below, and the following test results were obtained for representative species of the genus, where
The acute toxicity of the compounds was determined on groups of 10 mice.

β1 -receptors = target: T1, β1 -receptors (Felis catus, UniProt Q9TST6); test: β1-blocking activity: antagonism to tachycardia provoked by N-isopropyl-noradrenalin sulfate in anesthetized cats; type: in vivo; conditions: cat, iv, tachycardia by 1.0 γ/kg i.v. N-isopropyl-noradrenalin sulfate, graphic extrapolation (Table II), read-out: Blocking action on the β1 -receptors ED50
T1 construct: tested on anesthetized cats; from tissue; host or cells: living anesthetized cat, heart (heart rate)
T1 sequence (Q9TST6 whole entry): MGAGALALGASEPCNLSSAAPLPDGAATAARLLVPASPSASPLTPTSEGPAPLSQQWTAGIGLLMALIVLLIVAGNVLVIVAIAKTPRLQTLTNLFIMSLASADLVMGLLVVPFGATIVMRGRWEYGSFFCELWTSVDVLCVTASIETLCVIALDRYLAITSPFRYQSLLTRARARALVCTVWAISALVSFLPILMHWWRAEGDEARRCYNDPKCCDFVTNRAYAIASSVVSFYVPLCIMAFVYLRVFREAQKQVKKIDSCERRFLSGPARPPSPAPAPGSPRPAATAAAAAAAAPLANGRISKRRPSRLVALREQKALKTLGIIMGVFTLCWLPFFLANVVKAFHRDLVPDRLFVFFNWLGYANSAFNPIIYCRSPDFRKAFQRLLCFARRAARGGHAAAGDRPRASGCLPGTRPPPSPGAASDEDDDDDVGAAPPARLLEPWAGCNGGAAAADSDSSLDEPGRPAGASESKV
Experimental: as §1
The β1 -blocking activity was tested on anesthetized cats as antagonism to tachycardia provoked by a standard dose of 1.0 γ/kg i.v. of N-isopropyl-noradrenalin sulfate. From the average percentage reduction in heart rate acceleration caused by N-isopropyl-noradrenalin sulfate, obtained by various doses of the test compound in question, a median effective dose (ED50) was determined by graphic extrapolation (see Tables II and III).

β2 -receptors = target: T2, β2 -receptors (Cavia porcellus, UniProt Q8K4Z4); test: β2-mimetic activity: antagonism to acetylcholine bronchospasm in anesthetized guinea pigs (Konzett-Rossler); type: in vivo; conditions: for ED50: guinea pig, iv, bronchospasm by 20 γ/kg acetylcholine i.v., test compound i.v., graphic extrapolation (Table I); for Duration of activity (β2 -mimetic activity): i.v. (Table I)
T2 construct: tested on anesthetized guinea pigs; from tissue; host or cells: living anesthetized guinea pig, airways (Konzett-Rossler)
T2 sequence (Q8K4Z4 whole entry): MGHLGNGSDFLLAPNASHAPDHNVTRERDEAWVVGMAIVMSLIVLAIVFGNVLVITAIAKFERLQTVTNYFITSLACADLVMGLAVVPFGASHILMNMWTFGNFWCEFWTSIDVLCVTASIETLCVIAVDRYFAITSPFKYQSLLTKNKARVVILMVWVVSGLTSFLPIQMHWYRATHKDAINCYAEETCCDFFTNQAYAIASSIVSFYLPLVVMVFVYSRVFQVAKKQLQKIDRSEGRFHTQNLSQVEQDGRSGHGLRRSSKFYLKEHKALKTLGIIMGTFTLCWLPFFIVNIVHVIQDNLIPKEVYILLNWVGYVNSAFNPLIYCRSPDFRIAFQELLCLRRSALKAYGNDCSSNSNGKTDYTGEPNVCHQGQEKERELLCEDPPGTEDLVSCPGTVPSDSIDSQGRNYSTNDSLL
Experimental: as §1
The β2 -mimetic activity was tested on anesthetized guinea pigs as antagonism to bronchospasm provoked by intravenous administration of 20 γ of acetylcholine per kg body weight (according to the method of Konzett-Rossler) by intravenous administration of the test compound. From the average percentage decrease of the bronchospasm produced by various doses of the test compound, a median effective dose (ED50) was determined by graphic extrapolation (see Table I).

| SMILES | LD50 at 336 h [1] | ED50 (β1 -receptors) | ED50 (β2 -receptors) | Duration of activity (β2 -mimetic activity) (β2 -receptors) |
| --- | --- | --- | --- | --- |
| CCCNCC(O)c1cc(Cl)c(N)c(C#N)c1.Cl (stereo not shown) [Q, 1-(4'-amino-3'-chloro-5'-cyano-phenyl)-2-propylamino-ethanol hydrochloride] | 53.4 mg/kg | 0.00076 mg/kg | 0.027 mg/kg | 50 min |
| Nc1c(Cl)cc(C(O)CNC2CCC2)cc1C(F)(F)F (stereo not shown) [H, 1-(4'-amino-3'-chloro-5'-trifluoromethyl-phenyl)-2-cyclobutylamino-ethanolhydrochloride] | 36.3 mg/kg | – | 0.0068 mg/kg | > 125 min |
| Br.CCC(C)(C)NCC(O)c1ccc(N)c(C(F)(F)F)c1 (stereo not shown) [F, 1-(4'-amino-3'-trifluoromethyl-phenyl)-2-tert.pentylamino-ethanol hydrobromide] | – | 0.035 mg/kg | – | – |
| CC(C)(C)NCC(O)c1cc(F)c(N)c(C#N)c1.Cl (stereo not shown) [N, 1-(4'-amino-3'-fluoro-5'-cyano-phenyl)-2-tert.butylamino-ethanol hydrochloride] | 58.4 mg/kg | – | 0.00032 mg/kg | > 40 min |
| CCC(C)NCC(O)c1cc(Cl)c(N)c(C#N)c1.Cl (stereo not shown) [R, 1-(4'-amino-3'-chloro-5'-cyano-phenyl)-2-sec.butylamino-ethanol hydrochloride] | 40.4 mg/kg | 0.00032 mg/kg | 0.0057 mg/kg | > 80 min |
| CC(C)(C)NCC(O)c1cc(Br)c(N)c(C#N)c1.Cl (stereo not shown) [J, 1-(4'-amino-3'-bromo-5'-cyano-phenyl)-2-tert.butylamino-ethanol hydrochloride] | 67 mg/kg | – | 0.0048 mg/kg | > 40 min |
| CC(C)(C)NCC(O)c1cc(F)c(N)c(Cl)c1.Cl (stereo not shown) [D, 1-(4'-amino-3'-chloro-5'-fluoro-phenyl)-2-tert.butylamino-ethanol hydrochloride] | 35.1 mg/kg | 0.008 mg/kg | 0.019 mg/kg | > 120 min |
| CC(C)(C)NCC(O)c1cc(Br)c(N)c([N+](=O)[O-])c1 (stereo not shown) [Y, 1-(4'-amino-3'-bromo-5'-nitro-phenyl)-2-tert.butylamino-ethanol] | 35.8 mg/kg | 0.0028 mg/kg | – | – |
| Cl.N#Cc1cc(C(O)CNC2CCCC2)cc(Cl)c1N (stereo not shown) [U, 1-(4'-amino-3'-chloro-5'-cyano-phenyl)-2-cyclopentylamino-ethanol hydrochloride] | 39.1 mg/kg | 0.0007 mg/kg | 0.0098 mg/kg | > 50 min |
| CC(C)(C)NCC(O)c1cc(F)c(N)c(Br)c1.Cl (stereo not shown) [A, 1-(4'-amino-3'-bromo-5'-fluoro-phenyl)-2-tert.butylamino-ethanol hydrochloride] | 34.5 mg/kg | 0.0185 mg/kg | 0.0083 mg/kg | > 150 min |
| CCC(C)(C)NCC(O)c1cc(Cl)c(N)c(C#N)c1.Cl (stereo not shown) [T, 1-(4'-amino-3'-chloro-5'-cyano-phenyl)-2-tert.pentylamino-ethanol hydrochloride] | 33.7 mg/kg | 0.00045 mg/kg | 0.0019 mg/kg | > 40 min |
| CC(C)(C)NCC(O)c1cc(Cl)c(N)c(C#N)c1 (stereo not shown) [I, 1-(4'-amino-3'-chloro-5'-cyano-phenyl)-2-tert.butylamino-ethanol] | 60 mg/kg | 0.00074 mg/kg | 0.0002 mg/kg | > 95 min |
| Cl.Nc1c(F)cc(C(O)CNC2CC2)cc1I (stereo not shown) [L, 1-(4'-amino-3'-fluoro-5'-iodo-phenyl)-2-cyclopropylamino-ethanol hydrochloride] | 45.2 mg/kg | 0.0013 mg/kg | – | – |
| CC(Cc1ccc2c(c1)OCO2)NCC(O)c1cc(Cl)c(N)c(C#N)c1 (stereo not shown) [V, 1-(4'-amino-3'-chloro-5'-cyano-phenyl)-2-[1"-(3,4-methylenedioxy-phenyl)-2"-propylamino]-ethanol hydrochloride] | 13.5 mg/kg | 0.0014 mg/kg | 0.0027 mg/kg | > 65 min |
| CC(C)(C)N1COC(c2cc(F)c(N)c(Br)c2)C1.Cl.Cl (stereo not shown) [B, 5-(4'-amino-3'-bromo-5'-fluoro-phenyl)-3-tert.butyloxazolidine dihydrochloride] | 27.2 mg/kg | – | 0.0067 mg/kg | > 110 min |
| Cl.Nc1c(F)cc(C(O)CNC2CC2)cc1Cl (stereo not shown) [C, 1-(4'-amino-3'-chloro-5'-fluoro-phenyl)-2-cyclopropylamino-ethanol hydrochloride] | 57 mg/kg | 0.014 mg/kg | 0.024 mg/kg | > 50 min |
| CCC(C)(C)NCC(O)c1ccc(N)c(C#N)c1 (stereo not shown) [P, 1-(4'-amino-3'-cyano-phenyl)-2-tert.pentylamino-ethanol] | 62 mg/kg | – | 0.0036 mg/kg | 65 min |
| CC(C)NCC(O)c1cc(F)c(N)c(C#N)c1.Cl (stereo not shown) [M, 1-(4'-amino-3'-fluoro-5'-cyano-phenyl)-2-isopropylamino-ethanol hydrochloride] | 66.4 mg/kg | 0.00027 mg/kg | – | > 40 min |
| CC(C)(CO)NCC(O)c1cc(Cl)c(N)c(C#N)c1 (stereo not shown) [S, 1-(4'-amino-3'-chloro-5'-cyano-phenyl)-2-(hydroxy-tert.butylamino)-ethanolhydrochloride] | 81.8 mg/kg | 0.00076 mg/kg | 0.01 mg/kg | > 65 min |
| Br.N#Cc1cc(C(O)CNC2CCC2)ccc1N (stereo not shown) [O, 1-(4'-amino-3'-cyano-phenyl)-2-cyclobutylamino-ethanol hydrobromide] | 61.8 mg/kg | – | 0.0069 mg/kg | 40 min |
| CC(C)(C)NCC(O)c1cc(Cl)c(N)c(C(F)(F)F)c1 (stereo not shown) [G, 1-(4'-amino-3'-chloro-5'-trifluoromethyl-phenyl)-2-tert.butylamino-ethanolhydrochloride] | 36.5 mg/kg | 0.0115 mg/kg | 0.0195 mg/kg | > 130 min |
| Cl.N#Cc1cc(C(O)CNC2CCC2)cc(Br)c1N (stereo not shown) [W, 1-(4'-amino-3'-bromo-5'-cyano-phenyl)-2-cyclobutylamino-ethanol hydrochloride] | 38.5 mg/kg | – | 0.0205 mg/kg | > 50 min |
| Cl.Nc1c(F)cc(C(O)CNC2CCC2)cc1Br (stereo not shown) [K, 1-(4'-amino-3'-bromo-5'-fluoro-phenyl)-2-cyclobutylamino-ethanol hydrochloride] | 26.4 mg/kg | 0.0015 mg/kg | 0.058 mg/kg | > 50 min |
| CC(C)(C)NCC(O)c1ccc(N)c(F)c1.Cl (stereo not shown) [E, 1-(4'-amino-3'-fluoro-phenyl)-2-tert.butylamino-ethanol hydrochloride] | 69.2 mg/kg | 0.0135 mg/kg | 0.018 mg/kg | > 80 min |
| CC(C)(C)NCC(O)c1cc(Cl)c(N)c([N+](=O)[O-])c1 (stereo not shown) [Z, 1-(4'-amino-3'-chloro-5'-nitro-phenyl)-2-tert.butylamino-ethanol] | 42.4 mg/kg | 0.0045 mg/kg | 0.0315 mg/kg | > 80 min |
